This note sets out measurements from US4510136A (priority 1983, dated 1985).

What all share (format): in vivo
In one data set the test system is Cercospora arachidicola. Put plainly: Peanut early leafspot control on sprayed peanut seedlings (Example 84). The settings on record: 100 ppm spray, day before inoculation; for pest or weed control at 100 ppm: Mycosphaerella arachidis, 360 h, read-out: % Control Peanut Easly Leafspot.
The test system of another data set is Venturia inaequalis. Put plainly: Apple scab control on sprayed apple seedlings (Example 82). The settings on record: 100 ppm spray, day before inoculation; for pest or weed control at 100 ppm: Venturia inaequalis.
For another data set, the system named is Rhizoctonia solani. Description: Rice sheath blight control on sprayed rice seedlings (Example 87). The settings on record: 100 ppm spray, day before inoculation; for pest or weed control at 100 ppm: Rhizoctonia solani, 168 h. The method in brief:
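Rice seedlings were sprayed to run-off with 100 ppm compound suspended in water with 6% acetone and 250 ppm TREM 014 surfactant. They were inoculated next day with bran plus R. solani mycelium. Sheath blight was rated after 7 days in a growth room.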

In another data set the test system is Pyricularia oryzae. Description: whole plant or invertebrate. The settings on record: for pest or weed control at 100 ppm: Pyricularia oryzae, 168 h, read-out: % Control of Rice Blast, 100 ppm spray, day before inoculation; for % Control of Rice Blast: 100 ppm spray, day before inoculation.
For the next data set, the system named is Helminthosporium maydis. Put plainly: Southern corn leaf blight control on sprayed corn seedlings (Example 83). The settings on record: 100 ppm spray, day before inoculation; for pest or weed control at 100 ppm: Bipolaris maydis, 192 h. The method in brief:
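Compounds in 6% acetone at 100 ppm in water with 250 ppm TREM 014 surfactant, sprayed to run-off on corn seedlings; next day inoculated with spore suspension. 24 h at saturated humidity and 20°, then 7 days in growth room before disease rating; phytotoxicity scored as growth reduction.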

The subject of data set [1] is Puccinia recondita var. tritici. Put plainly: Wheat leaf rust control on sprayed wheat seedlings (Example 79). The settings on record: 100 ppm spray, day before inoculation; for pest or weed control at 100 ppm: Puccinia recondita, 168 h. The method in brief: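 Wheat seedlings were sprayed to run-off with 100 ppm compound suspended in water with 6% acetone and 250 ppm TREM 014 surfactant. Next day they were inoculated with Puccinia recondita var. tritici spores and held 24 h at saturated humidity, 20°. Rust pustules were rated after a further 7 days in a growth room.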

In the next data set the test system is Erysiphe cichoracearum. Put plainly: Cucumber powdery mildew control on sprayed cucumber seedlings (Example 80). The settings on record: 100 ppm spray, day before inoculation; for pest or weed control at 100 ppm: Golovinomyces cichoracearum, 168 h.
The test system of the next data set is Phytophthora infestans. Put plainly: whole plant or invertebrate. The settings on record: for pest or weed control at 100 ppm: Phytophthora infestans, in Solanum lycopersicum, 168 h, read-out: % Control of Tomato Late Blight, 100 ppm spray, day before inoculation; for % Control of Tomato Late Blight: 100 ppm spray, day before inoculation.
The subject of a further data set is cucumber seedlings. Description: Phytotoxicity on cucumber seedlings (Example 80). On the set-up: key: G = growth reduction; H = hormonal effects. The settings on record: 100 ppm spray. The procedure:
The compounds of the previous example were again dissolved in acetone in an amount equal to 6% of the final volume and then suspended at a concentration of 100 ppm in purified water containing 250 ppm of the surfactant TREM 014 (polyhydric alcohol esters). These suspensions were sprayed to the point of run-off, on cucumber seedlings. The following day, the plants were inoculated with a spore suspension of the fungus Erysiphe cichoracearum, causal agent of cucumber powdery mildew, and incubated in a growth room for 7 days. Disease ratings were then made. Treated plants from successful treatments had little or no powdery mildew in contrast to untreated plants which were covered with powdery mildew. Phytotoxicity in the form of growth reduction or hormonal effects was observed on some of the plants in association with disease control.

Take `COc1cccc([Si](C)(C)Cn2cncn2)c1OC` [(2,3-Dimethoxyphenyl)dimethyl(1H-1,2,4-triazol-1-ylmethyl)silane]: the pest or weed control at 100 ppm (with Cercospora arachidicola; in the data set on Venturia inaequalis; in the data set with Rhizoctonia solani; in the data set with Pyricularia oryzae; in the data set on Helminthosporium maydis; in [1]) was 0% in each case. Moreover, the pest or weed control at 100 ppm in the data set on Erysiphe cichoracearum was 100%; in the data set with Phytophthora infestans, 0%. Moreover, the Phytotoxicity on cucumber result in the data set on cucumber seedlings was “G”.
As for `COc1cccc(OC)c1[Si](C)(C)Cn1cncn1` [(2,6-Dimethoxyphenyl)dimethyl(1H-1,2,4-triazol-1-ylmethyl)silane], the pest or weed control at 100 ppm (with Cercospora arachidicola; in the data set with Venturia inaequalis; in the data set on Rhizoctonia solani; in the data set on Pyricularia oryzae; in the data set with Helminthosporium maydis; in data set [1]) was 0% each time. Besides, the pest or weed control at 100 ppm amounted to 100% with Erysiphe cichoracearum and 0% in the data set on Phytophthora infestans. Besides, the Phytotoxicity on cucumber result in the data set on cucumber seedlings is on record as “G”.
Take `C[Si](C)(Cn1cncn1)c1ccccc1Cl` [(2-Chlorophenyl)dimethyl(1H-1,2,4-triazol-1-ylmethyl)silane]: the pest or weed control at 100 ppm with Rhizoctonia solani is 0%; with Pyricularia oryzae, 100%; in [1] it was 0%; in the data set with Phytophthora infestans, 0%. The Phytotoxicity on cucumber result in the data set with cucumber seedlings is given as “G”.
In the case of `COc1ccccc1[Si](C)(C)Cn1cncn1` [(2-Methoxyphenyl)dimethyl(1H-1,2,4-triazol-1-ylmethyl)silane], the pest or weed control at 100 ppm in the data set with Cercospora arachidicola was 0%; in the data set on Venturia inaequalis, 80%; with Rhizoctonia solani it was 0%; in the data set on Pyricularia oryzae it was 0%; in the data set on Helminthosporium maydis it was 70%; in data set [1], 0%. The pest or weed control at 100 ppm with Erysiphe cichoracearum was determined as 100%; in the data set with Phytophthora infestans, 0%. The Phytotoxicity on cucumber entry in the data set with cucumber seedlings was “G”.
As to `C[Si](C)(Cn1cncn1)C1CCCCC1` [Cyclohexyl(dimethyl)(1H-1,2,4-triazol-1-ylmethyl)silane], the pest or weed control at 100 ppm is 0% in the data set with Cercospora arachidicola; 0% in the data set on Venturia inaequalis; 0% in the data set with Rhizoctonia solani; 50% in the data set with Helminthosporium maydis; 0% in data set [1]; 100% in the data set with Erysiphe cichoracearum. In addition, in the data set on Phytophthora infestans, the pest or weed control at 100 ppm is 0%. Moreover, the Phytotoxicity on cucumber entry with cucumber seedlings is listed as “G”.
With `C[Si](C)(Cn1cncn1)c1ccc(C(F)(F)F)cc1` [Dimethyl(1H-1,2,4-triazol-1-ylmethyl)(4-trifluoromethylphenyl)silane], the pest or weed control at 100 ppm in the data set on Cercospora arachidicola came out at 0%; with Venturia inaequalis, 0%; in the data set on Rhizoctonia solani it was 0%; with Pyricularia oryzae it was 0%; with Helminthosporium maydis, 50%; in [1], 0%. The values for the pest or weed control at 100 ppm in the data set on Erysiphe cichoracearum and in the data set on Phytophthora infestans were 100% and 0%, respectively. For the same compound, the Phytotoxicity on cucumber entry in the data set on cucumber seedlings is listed as “G”.
`C[Si](C)(Cn1cncn1)c1ccc(OC(F)(F)F)cc1` [Dimethyl(4-trifluoromethoxyphenyl)(1H-1,2,4-triazol-1-ylmethyl)silane]: the pest or weed control at 100 ppm with Cercospora arachidicola is 50%; with Venturia inaequalis it was 90%; in the data set on Rhizoctonia solani, 0%; in the data set with Pyricularia oryzae, 0%; in the data set on Helminthosporium maydis, 80%; in data set [1], 100%. In addition, the pest or weed control at 100 ppm with Erysiphe cichoracearum was 100%; in the data set on Phytophthora infestans, 0%. For the same compound, the Phytotoxicity on cucumber result with cucumber seedlings is listed as “G”.
Take `C[Si](Cn1cncn1)(c1ccc(Br)cc1)c1ccc(Br)cc1` [[bis(4-Bromophenyl)]methyl(1H-1,2,4-triazol-1-ylmethyl)silane]: the pest or weed control at 100 ppm with Cercospora arachidicola worked out at 100%; in the data set with Venturia inaequalis it was 80%; with Rhizoctonia solani it was 0%; in the data set on Pyricularia oryzae, 90%; in the data set with Helminthosporium maydis, 0%; in data set [1] it was 0%. Besides, the pest or weed control at 100 ppm with Erysiphe cichoracearum came out at 80%; in the data set on Phytophthora infestans, 0%. For the same compound, in the data set with cucumber seedlings, the Phytotoxicity on cucumber entry is recorded as “G”.
With `C[Si](Cn1cncn1)(c1ccc(Cl)cc1Cl)c1ccc(Cl)cc1Cl` [bis(2,4-Dichlorophenyl)(methyl)(1H-1,2,4-triazol-1-ylmethyl)silane], the pest or weed control at 100 ppm in the data set on Cercospora arachidicola came out at 100%; in the data set with Venturia inaequalis it was 100%; in the data set with Rhizoctonia solani, 0%; in the data set with Pyricularia oryzae it was 0%; in the data set with Helminthosporium maydis it was 80%; in data set [1], 100%. For the same compound, the pest or weed control at 100 ppm in the data set with Erysiphe cichoracearum was 100%; with Phytophthora infestans, 0%. For the same compound, the Phytotoxicity on cucumber result with cucumber seedlings was “G”.
As for `O[Si](Cn1cnnc1)(c1ccc(Cl)cc1)c1ccc(Cl)cc1` [bis(4-Chlorophenyl)hydroxy(4H-1,2,4-triazol-4-ylmethyl)silane], the pest or weed control at 100 ppm in the data set with Cercospora arachidicola turned out to be 100%; in the data set on Venturia inaequalis it was 100%; in the data set with Rhizoctonia solani, 0%; with Pyricularia oryzae it was 0%; in the data set on Helminthosporium maydis it was 80%; in data set [1], 90%. In addition, the pest or weed control at 100 ppm turned out to be 100% with Erysiphe cichoracearum and 0% in the data set on Phytophthora infestans.
Turning to `Clc1ccc([Si](Cn2cncn2)(c2ccc(Cl)cc2)c2ccc(Cl)cc2)cc1` [tris(4-Chlorophenyl)(1H-1,2,4-triazol-1-ylmethyl)silane], the pest or weed control at 100 ppm with Cercospora arachidicola was found to be 0%; in the data set with Venturia inaequalis, 0%; in the data set with Rhizoctonia solani it was 0%; in the data set on Pyricularia oryzae, 0%; with Helminthosporium maydis, 0%; in data set [1] it was 40%. Moreover, the figures for the pest or weed control at 100 ppm with Erysiphe cichoracearum and in the data set with Phytophthora infestans were 100% and 0%, respectively.
As for `Fc1ccc([Si](Cn2cncn2)(c2ccc(F)cc2)c2ccc(F)cc2)cc1` [tris(4-Fluorophenyl)(1H-1,2,4-triazol-1-ylmethyl)silane], the pest or weed control at 100 ppm with Cercospora arachidicola is 90%; with Venturia inaequalis it was 60%; with Rhizoctonia solani it was 0%; in the data set with Pyricularia oryzae, 0%; in the data set on Helminthosporium maydis, 0%; in data set [1], 90%. Also, the pest or weed control at 100 ppm in the data set with Erysiphe cichoracearum and in the data set with Phytophthora infestans was 0% in each case.
Consider “(1,1'-Biphenyl-4-yl)dimethyl(1H-1,2,4-triazol-1-ylmethyl)silane, 1:1 complex with zinc (II) chloride”, for which the “% Control Peanut Easly Leafspot” value with Cercospora arachidicola was 100%. The “% Control Apple Scab” value in the data set on Venturia inaequalis came out at 100%. In the data set on Rhizoctonia solani, the “% Control of Rice Sheath Blight” value is recorded as 90%. The “% Control of Rice Blast” value with Pyricularia oryzae was 100%. Moreover, the “% Control of Southern Corn Leaf Blight” value in the data set on Helminthosporium maydis was found to be 90%. For the same compound, the “% Control Wheat Rust” value in data set [1] is 100%. Besides, the “% Control Cucumber Powdery Mildew” value with Erysiphe cichoracearum turned out to be 80%. Further, the “% Control of Tomato Late Blight” value in the data set with Phytophthora infestans turned out to be 90%.
On to “(1,1'-Biphenyl-4-yl)dimethyl(1H-1,2,4-triazol-1-ylmethyl)silane, 2:1 complex with cupric chloride”, for which the “% Control Peanut Easly Leafspot” value in the data set on Cercospora arachidicola amounted to 100%. Further, the “% Control Apple Scab” value with Venturia inaequalis came to 100%. Besides, the “% Control of Rice Sheath Blight” value with Rhizoctonia solani was found to be 80%. For the same compound, the “% Control of Rice Blast” value in the data set with Pyricularia oryzae is recorded as 0%. In addition, the “% Control of Southern Corn Leaf Blight” value with Helminthosporium maydis turned out to be 80%. Besides, the “% Control Wheat Rust” value in [1] worked out at 100%. For the same compound, the “% Control Cucumber Powdery Mildew” value with Erysiphe cichoracearum stood at 100%. In addition, in the data set on Phytophthora infestans, the “% Control of Tomato Late Blight” value was determined as 0%.
